Laboratory results from US6215002A, “Pyrrolopyrrolone derivatives as inhibitors of neutrophil elastase” (priority 1996, dated 2001).
Structures can show the parent of a compound that is named as a salt.

Tests used:
[1] = target: T1, human neutrophil elastase (Homo sapiens, UniProt P08246); assay: In vitro assay of human neutrophil elastase (HNE); type: biochemical; conditions: 118 nM purified human neutrophil elastase, pH 8.6, 15 min incubation at 30° C., MeO-succinyl-alanyl-alanyl-prolyl-valyl-p-nitroanilide substrate; read-out: HNE IC50
T1 sequence (P08246 30-267): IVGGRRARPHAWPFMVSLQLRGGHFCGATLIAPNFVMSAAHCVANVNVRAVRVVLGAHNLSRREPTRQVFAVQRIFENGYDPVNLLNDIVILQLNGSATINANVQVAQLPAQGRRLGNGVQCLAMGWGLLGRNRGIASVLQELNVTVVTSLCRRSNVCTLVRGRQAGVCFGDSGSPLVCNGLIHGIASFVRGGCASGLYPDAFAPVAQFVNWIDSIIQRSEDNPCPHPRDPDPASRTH
Outline: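 Residual activity was taken as the 10 min rate of absorbance rise at 405 nm after adding 0.6 mM MeO-succinyl-AAPV-p-nitroanilide. Curve fitting of activity against concentration gave IC50.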

Intracellular elastase = assay: Oral in vivo model using IL-8 induced lung infiltrates for the assessment of intracellular elastase inhibition (hamster test); conditions: effective dose of less than 40 mg/kg, IL-8 intratracheal
Description: An Oral in vivo Model Using IL-8 Induced Lung Infiltrates For the Assessment of Intracellular Elastase Inhibition
Adult hamsters (100-150 g) are randomised into groups (n=4) and fasted overnight. Under gaseous anaesthetic (3% isofluorane) animals are dosed orally with 1 mL/100 g water as vehicle or containing predissolved compounds. Either at the same time, or subsequently under anaesthetic, animals are dosed intratracheally with 1 ug recombinant human IL-8 in 100 uL sterile saline. Six hours after IL-8 dosing animals are sacrificed using intrapertoneal pentobarbitone. The lungs are ravaged with 2×2.5 mL sterile saline and femurs are removed by dissection.
Intracellular elastase is prepared from neutrophils collected by lavage and from femoral bone marrow. This is achieved by sonication of the neutrophils and centrifugation to yield intracellular granules. These are disrupted by freeze/thawing and sonication. Elastase and myeloperoxidase assays are then performed on these samples to assess the efficacy of the compounds and to normalise for neutrophil recovery.

IC50 [1] | Compound | duration of effect (Intracellular elastase)
114 nM | CC(C)[C@H]1C(=O)N(S(C)(=O)=O)[C@H]2CCN(C(=O)/C=C/CN3C[C@H]4Cc5c(F)ccc(F)c5C[C@@H]4C3)[C@H]12 (relative stereo) [Example 153, rel-(3R,3aR,6aS)-4-[4-(5,8-Difluoro-1,3,3a,4,9,9a-hexahydro-(3aS,9aS)-benzol[f]isoindol-2-yl)-but-2E-enoyl]-3-isopropyl-1-methanesulfonyl-hexahydro-pyrrolo[3,2-b]pyrrol-2-one hydrochloride] | at least 6 hours
43 nM | CC(C)[C@H]1C(=O)N(S(C)(=O)=O)[C@H]2CCN(C(=O)c3ccc(CN4CCC(C(N)=O)CC4)cc3)[C@H]12.Cl (relative stereo) [Example 187, rel-1-[4-(6R-Isopropyl-4-methanesulfonyl-5-oxo-hexahydro-(3aS,6aR)-pyrrolo[3,2-b]pyrrole-1-carbonyl)-benzyl]-piperidine-4-carboxylic acid amide hydrochloride] | at least 6 hours
– | CC(C)[C@H]1C(=O)N(S(C)(=O)=O)[C@H]2CCN(C(=O)/C=C/CN3CCCCC3)[C@H]12.Cl (relative stereo) [Example 135, rel-(3R,3aR,6aS)-3-Isopropyl-1-methanesulfonyl-4-(4-piperidin-1-yl-but-2E-enoyl)-hexahydro-pyrrolo[3,2-b]pyrrol-2-one hydrochloride] | at least 6 hours
27 nM | CCC[C@H]1C(=O)N(S(C)(=O)=O)[C@H]2CCN(C(=O)/C=C/CN3CCCCC3)[C@H]12 (relative stereo) [Example 57, rel-(3R,3aR,6aS)-1-Methanesulfonyl-4-(4-piperidin-1-yl-but-2-(E)-enoyl-3-propyl-hexahydro-pyrrolo[3,2-b]pyrrol-2-one hydrochloride] | at least 6 hours
– | CC(C)[C@H]1C(=O)N(S(C)(=O)=O)[C@H]2CCN(C(=O)/C=C/CN3CCCCC3)[C@H]12.Cl [Example 155, (3R,3aR,6aS)-3-Isopropyl-1-methanesulfonyl-4-(4-piperidin-1-yl-but-2E-enoyl)-hexahydro-pyrrolo[3,2-b]pyrrol-2-one hydrochloride] | at least 6 hours
– | CC(C)[C@@H]1C(=O)N(S(C)(=O)=O)[C@@H]2CCN(C(=O)/C=C/CN3CCCCC3)[C@H]21.Cl [Example 154, (3S,3aS,6aR)-3-Isopropyl-1-methanesulfonyl-4-(4-piperidin-1-yl-but-2E-enoyl)-hexahydro-pyrrolo[3,2-b]pyrrol-2-one hydrochloride] | at least 6 hours
40 nM | CCC[C@H]1C(=O)N(S(C)(=O)=O)[C@H]2CCN(S(=O)(=O)c3ccc(NC(C)=O)c(Cl)c3)[C@H]12 (relative stereo) [Example 213, rel-N-[2-Chloro-4-(4-methanesulfonyl-5-oxo-6R-propyl-hexahydro-(3aS,6aR)-pyrrolo[3,2-b]pyrrole-1-sulfonyl)-phenyl]-acetamide] | –
84 nM | C=CC[C@H]1C(=O)N(S(=O)(=O)c2csc3ccccc23)[C@H]2CCN(C(=O)OCc3ccccc3)[C@H]12 (relative stereo) [Example 41, rel-(3aS,6R,6aR)-6-Allyl-4-(benzo[b]thiophene-3-sulfonyl)-5-oxo-hexahydro-pyrrolo[3,2-b]pyrrole-1-carboxylic acid benzyl ester] | –
78 nM | CCC[C@H]1C(=O)N(S(C)(=O)=O)[C@H]2CCN(C(=O)c3cccs3)[C@H]12 (relative stereo) [Example 232, rel-(3R,3aR,6aS)-1-Methanesulfonyl-3-propyl-4-(thiophene-2-carbonyl)-hexahydro-pyrrolo[3,2-b]pyrrol-2-one] | –
11 nM | CCC[C@H]1C(=O)N(S(C)(=O)=O)[C@H]2CCN(C(=O)c3ccc(C(F)(F)F)cc3)[C@H]12 (relative stereo) [Example 244, rel-(3R,3aR,6aS)-1-Methanesulfonyl-3-propyl-(4-trifluoromethyl-benzoyl)-hexahydro-pyrrolo[3,2-b]pyrrol-2-one] | –
413 nM | CCC[C@H]1C(=O)N(S(=O)(=O)CC(F)(F)F)[C@H]2CCN(C(=O)CCN3CCCCC3)[C@H]12 (relative stereo) [Example 164, rel-(3R,3aR,6aS)-4-(3-Piperidin-1-yl-propionyl)-3-propyl-1-(2,2,2-trifluoro-ethanesulfonyl)-hexahydro-pyrrolo[3,2-b]pyrrol-2-one DL-tartrate] | –
67 nM | CCC[C@H]1C(=O)N(S(C)(=O)=O)[C@H]2CCN(C(=O)CCCCCN(C)c3ccccc3)[C@H]12 (relative stereo) [Example 81, rel-(3R,3aR,6aS)-1-Methanesulfonyl-4-[6-(methyl-phenyl-amino)-hexanoyl]-3-propyl-hexahydro-pyrrolo[3,2-b]pyrrol-2-one hydrochloride] | –
37 nM | CCC[C@H]1C(=O)N(S(C)(=O)=O)[C@H]2CCN(C(=O)CCCCCCCCCN3CCC3)[C@H]12 (relative stereo) [Example 72, rel-(3R,3aR,6aS)-4-(10-Azetidin-1-yl-decanoyl)-1-methanesulfonyl-3-propyl-hexahydro-pyrrolo[3,2-b]pyrrol-2-one DL-tartrate] | –
697 nM | CC[C@H]1C(=O)N(S(=O)(=O)c2ccc3ccccc3c2)[C@H]2CCN(S(=O)(=O)CCCN3CCOCC3)[C@H]12 (relative stereo) [Example 35, rel-(3R,3aR,6aS)-3-Ethyl-4-(3-morpholin-4-yl)-propane-1-sulfonyl)-1-(naphthalene-2-sulfonyl)-hexahydro-pyrrolo[3,2-b]pyrrol-2-one meso-tartrate] | –
39 nM | CCC[C@H]1C(=O)N(S(C)(=O)=O)[C@H]2CCN(S(=O)(=O)CCCN3CCN(C)CC3)[C@H]12 (relative stereo) [Example 10, rel-(3R,3aR,6aS)-1-Methanesulfonyl-4-[3-(4-methyl-piperazin-1-yl)-propane-1-sulfonyl]3-propyl-hexahydro-pyrrolo[3,2-b]pyrrol-2-one dihydrochloride] | –
362 nM | CCC[C@H]1C(=O)N(S(=O)(=O)c2cccc3c2NCCC3)[C@H]2CCN(C(=O)OCc3ccccc3)[C@H]12 (relative stereo) [Example 50, rel-(3aS,6R,6aR)-5-Oxo-6-propyl-4-(1,2,3,4-tetrahydro-quinoline-8-sulfonyl-hexahydro-pyrrolo[3,2-b]pyrrole-1-carboxylic acid benzyl ester] | –
84 nM | CCC[C@H]1C(=O)N(S(C)(=O)=O)[C@H]2CCN(C(=O)CCC(N)=O)[C@H]12 (relative stereo) [Example 95, rel-4-(4-Methanesulfonyl-5-oxo-6R-propyl-hexahydro-(3aS,6aR)-pyrrolo[3,2-b]pyrrol-1-yl)-4-oxo-butyramide] | –

Compound | IC50 [1] | duration of effect (Intracellular elastase)
CCC[C@H]1C(=O)N(S(=O)(=O)c2ccc3ccccc3c2)[C@H]2CCN(C(=O)CCN3CCCCC3)[C@H]12 (relative stereo) [Example 2, rel-(3R,3aR,6aS)-1-(Naphthalene-2-sulfonyl)-4-(3-piperidin-1-yl-propionyl)-3-propyl-hexahydro-pyrrolo[3,2-b]pyrrol-2-one hydrochloride] | 137 nM | at least 6 hours
